Measured values taken from article PMC11714206, “Massively Parallel Screening of Toll/Interleukin‐1 Receptor (TIR)‐Derived Peptides Reveals Multiple Toll‐Like Receptors (TLRs)‐Targeting Immunomodulatory Peptides” (Advanced Science, 2024).
Values belong to the sequence of their own block, whether it stands above or below them.

Biological target: T1, MyD88^TIR (Homo sapiens, UniProt Q99836)
T1 construct: MyD88 (residues 148–296); 6xHis; made in house; host or cells: E. coli BL21 (DE3)
Test: T‐Surf phage library (P8 and P3) selection against MyD88^TIR, four rounds, NGS read counts
Format: binding
Conditions: for P3_MyD88 Rank (after) / P3_MyD88 Rank (before): P3 library; for Population: 4th round of selection against MyD88 TIR, share of NGS reads; for P8_MyD88 Rank (after) / P8_MyD88 Rank (before): P8 library
Procedure, shortened: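 Four panning rounds on TIR domain adsorbed at 5 µg mL^−1; binding 1 h at 20–22 °C, elution with 100 mM HCl. Output: NGS read counts of round‐4 pools versus naïve library.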

[1] = selection against MyD88 TIR, rank by count after grouping
[2] = selection against MyD88 TIR, rank by count before grouping
[3] = P3_MyD88: rank by count after grouping
[4] = P3_MyD88: rank by count before grouping
[5] = P3_MyD88 pool: P3 T-Surf phage library
[6] = selection against MyD88, rank after grouping
[7] = selection against MyD88, rank before grouping
[8] = P8_MyD88: rank by NGS read count after grouping
[9] = P8_MyD88: rank by NGS read count before grouping
[10] = P8_MyD88: rank by count after grouping
[11] = P8_MyD88: rank by count before grouping
[12] = P8_MyD88 pool: P8 T-Surf phage library
[13] = selection against MyD88, rank by count after grouping
[14] = selection against MyD88, rank by count before grouping

T1 sequence (Q99836 148-296): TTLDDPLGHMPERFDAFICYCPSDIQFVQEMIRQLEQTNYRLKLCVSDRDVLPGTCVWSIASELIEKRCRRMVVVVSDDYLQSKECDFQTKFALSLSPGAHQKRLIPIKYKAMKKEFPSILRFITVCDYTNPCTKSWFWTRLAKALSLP

Sequence: YAFTGHLHRYLVPRGL
P3_MyD88 Rank (after) [1]: 248
P3_MyD88 Rank (before) [2]: 1503

Sequence: YAFTGHLHRYLVQPGESVC
Rank (after) [3]: 456
Rank (before) [4]: 1515

Sequence: YAFTGHLHRYLVQRGV
Population [5]: 0.00378%

Sequence: YAFTGHLHSYLVQRSV
Rank (after) [3]: 125
Rank (before) [4]: 1530

Sequence: YAFTGHLPRDLVLRGG
P3_MyD88 Rank (after) [6]: 491
P3_MyD88 Rank (before) [7]: 1493

Sequence: YAFTGHLQRYLVQRCV
P3_MyD88 Rank (after) [1]: 234
P3_MyD88 Rank (before) [2]: 1531

Sequence: YAFTGHLRKQSGEFG
P3_MyD88 Rank (after) [6]: 486
P3_MyD88 Rank (before) [7]: 1491

Sequence: YAFTVHLHRYLVQRGG
Rank (after) [3]: 448
Rank (before) [4]: 1482

Sequence: YALTGHKHRYMVQRGV
P3_MyD88 Rank (after) [1]: 193
P3_MyD88 Rank (before) [2]: 1554

Sequence: YASNDDNDYYWVTHVRLRHL
Rank (after) [8]: 1023
Rank (before) [9]: 1909

Sequence: YASRSWYLDELVHIPW
Rank (after) [8]: 1022
Rank (before) [9]: 1842

Sequence: YASSIWALNELIRILE
Rank (after) [10]: 138
Rank (before) [11]: 149
Population [12]: 0.0108%

Sequence: YASSSWALDELLKILYANETM
Rank (after) [10]: 190
Rank (before) [11]: 277

Sequence: YASSSWALDELLQILHARELF
Rank (after) [10]: 175
Rank (before) [11]: 207

Sequence: YASSSWALDELLQILW
P8_MyD88 Rank (after) [13]: 720
P8_MyD88 Rank (before) [14]: 1891

Sequence: YASSSWALDELWLILEQR
Rank (after) [8]: 961
Rank (before) [9]: 1883

Sequence: YASSSWALDELWNIF
Rank (after) [10]: 167
Rank (before) [11]: 193
Population [12]: 0.00617%

Sequence: YASSSWALEELVKIMEAM
Rank (after) [10]: 454
Rank (before) [11]: 1898

Sequence: YASSSWALLELSKIFEAM
Rank (after) [8]: 994
Rank (before) [9]: 1899

Sequence: YASSSWYLDALVQILHARELF
Rank (after) [10]: 388
Rank (before) [11]: 1856

Sequence: YASSSWYLDELLQIA
Rank (after) [10]: 402
Rank (before) [11]: 1870

Sequence: YASSSWYRFELVDILW
Rank (after) [8]: 973
Rank (before) [9]: 1874

Sequence: YASSTWALDELLQIFE
Rank (after) [10]: 124
Rank (before) [11]: 131
Population [12]: 0.0135%

Sequence: YASSTWWLRELLQIA
Rank (after) [10]: 147
Rank (before) [11]: 208

Sequence: YASSWWALEELLQILHARELF
Rank (after) [8]: 931
Rank (before) [9]: 1850

Sequence: YASSWWALEELLRILY
P8_MyD88 Rank (after) [6]: 568
P8_MyD88 Rank (before) [7]: 1849

Sequence: YASYDDNDYYWDPCAAASS
P8_MyD88 Rank (after) [6]: 511
P8_MyD88 Rank (before) [7]: 1815

Sequence: YASYDDNDYYWLTNVLLRLL
P8_MyD88 Rank (after) [13]: 710
P8_MyD88 Rank (before) [14]: 1778

Sequence: YASYDDNDYYWMTHVLLRHM
P8_MyD88 Rank (after) [13]: 771
P8_MyD88 Rank (before) [14]: 1816

Second part, the sequence after the results:

Population [5]: 0.0032%
Sequence: YAFTGHLHRYLVQRAA

Rank (after) [3]: 134
Rank (before) [4]: 834
Sequence: YAFTGHLHRYLVQRL

Rank (after) [3]: 433
Rank (before) [4]: 1536
Sequence: YAFTGHPPRYLVQRGV

P3_MyD88 Rank (after) (4R selection against MyD88, rank after grouping): 623
P3_MyD88 Rank (before) (4R selection against MyD88, rank before grouping): 1538
Sequence: YAFTGQLNQYLVQRGV

P3_MyD88 Rank (after) [1]: 204
P3_MyD88 Rank (before) [2]: 1552
Sequence: YALTCHLHRYLVQRGV

P8_MyD88 Rank (after) [6]: 507
P8_MyD88 Rank (before) [7]: 1764
Sequence: YARSDDNYYYWVTHVLLRHL

P8_MyD88 Rank (after) [6]: 570
P8_MyD88 Rank (before) [7]: 1770
Sequence: YASCDDFDYYLETAVLLRHL

Rank (after) [10]: 456
Rank (before) [11]: 1901
Sequence: YASSSWALNELLEILDAKETM

Rank (after) [10]: 389
Rank (before) [11]: 1902
Sequence: YASSSWALNELPRILY

Rank (after) [8]: 966
Rank (before) [9]: 1904
Sequence: YASSSWELDELLRIPY

Rank (after) [8]: 989
Rank (before) [9]: 1854
Sequence: YASSSWYLAELVHMPW

Rank (after) [8]: 951
Rank (before) [9]: 1858
Sequence: YASSSWYLDELCIFC

Rank (after) [8]: 897
Rank (before) [9]: 1860
Sequence: YASSSWYLDELVRSLW

P8_MyD88 Rank (after) [13]: 686
P8_MyD88 Rank (before) [14]: 1851
Sequence: YASSWWLRELLQIA

P8_MyD88 Rank (after) [1]: 248
P8_MyD88 Rank (before) [2]: 439
Sequence: YASYDDFWDRLIRMIE
